Results as given in ChEMBL document CHEMBL4715767, “Pterin-7-carboxamides as a new class of aldose reductase inhibitors” (Bioorg Med Chem Lett, 2016).

Columns and labels:
[1] = target: T1, Aldo-keto reductase family 1 member B1 (Homo sapiens, UniProt P15121); test: Inhibition of recombinant human ALR2 using D,L-glyceraldehyde and NADPH as substrate preincubated for 3 mins followed by substrate addition and measured for 3 mins by spectrophotometric analysis
[2] = target: T1, Aldo-keto reductase family 1 member B1; test: Inhibition of recombinant human ALR2 at 10.5 mM using D,L-glyceraldehyde and NADPH as substrate preincubated for 3 mins followed by substrate addition and measured for 3 mins by spectrophotometric analysis relative to control; conditions: time 6.0 min

Row | IC50 ([1]; read-out: IC50) [µM] | SMILES | also measured
1 | 17.5 | Nc1nc2nc(C(=O)NCCC(=O)O)cnc2c(=O)[nH]1 | 
2 | 83.4 | CC(C)[C@H](NC(=O)c1cnc2c(=O)[nH]c(N)nc2n1)C(=O)O | 
3 | 42.1 | Nc1nc2nc(C(=O)N[C@H](CCc3ccccc3)C(=O)O)cnc2c(=O)[nH]1 | 
4 | 12.4 | C[C@H](NC(=O)c1cnc2c(=O)[nH]c(N)nc2n1)C(=O)O | 
5 | 46 | Nc1nc2nc(C(=O)N[C@@H](Cc3ccccc3)C(=O)O)cnc2c(=O)[nH]1 | 
6 | 52.5 | Nc1nc2ncc(CNc3ccc(C(=O)N[C@@H](CCC(=O)O)C(=O)O)cc3)nc2c(=O)[nH]1 [FOLIC ACID] | 
7 | 1.97 | Nc1nc2nc(C(=O)NCC(=O)O)cnc2c(=O)[nH]1 | 
8 | 72 | C[C@@H](NC(=O)c1cnc2c(=O)[nH]c(N)nc2n1)C(=O)O | 
9 | 130 | Nc1nc2nc(C(=O)N[C@H](CO)C(=O)O)cnc2c(=O)[nH]1 | 
10 | 29.2 | Nc1nc2nc(C(=O)N[C@@H](CO)C(=O)O)cnc2c(=O)[nH]1 | 
11 | 68.1 | Nc1nc2nc(C(=O)N[C@H](Cc3ccccc3)C(=O)O)cnc2c(=O)[nH]1 | 
12 | 56.6 | Nc1nc2nc(C(=O)N[C@@H](C(=O)O)c3ccccc3)cnc2c(=O)[nH]1 | 
13 |  | Nc1nc2nc(C(=O)NCC(=O)N[C@@H](Cc3ccccc3)C(=O)O)cnc2c(=O)[nH]1 | inhibition [2]: 9%
14 | 216 | Nc1nc2nc(C(=O)N[C@@H](Cc3ccc(O)cc3)C(=O)O)cnc2c(=O)[nH]1 | 
15 | 278 | CC[C@@H](C)[C@@H](NC(=O)c1cnc2c(=O)[nH]c(N)nc2n1)C(=O)O | 
16 | 194 | CC(C)[C@@H](NC(=O)c1cnc2c(=O)[nH]c(N)nc2n1)C(=O)O | 
17 | 26.5 | Nc1nc2nc(C(=O)O)cnc2c(=O)[nH]1 | 
18 | 580 | Nc1nc2nc(C(=O)N[C@H](Cc3ccc(O)cc3)C(=O)O)cnc2c(=O)[nH]1 | 
19 | 25.5 | Nc1nc2nc(C(=O)NCCCC(=O)O)cnc2c(=O)[nH]1 | 
20 | 69 | CC[C@H](C)[C@H](NC(=O)c1cnc2c(=O)[nH]c(N)nc2n1)C(=O)O | 
21 | 42.6 | Nc1nc2nc(C(=O)N[C@H](C(=O)O)c3ccccc3)cnc2c(=O)[nH]1 | 
22 | 4.02 | Nc1nc2nc(C(=O)NCCCCCC(=O)O)cnc2c(=O)[nH]1 | 
23 | 61.7 | CC(C)C[C@H](NC(=O)c1cnc2c(=O)[nH]c(N)nc2n1)C(=O)O | 
24 | 25.1 | Nc1nc2nc(C(=O)N[C@@H](CCc3ccccc3)C(=O)O)cnc2c(=O)[nH]1 | 
25 |  | Nc1nc2ncc(C(=O)O)nc2c(=O)[nH]1 [PTERIN-6-CARBOXYLIC ACID] | IC50 [1]: Nd(Insoluble)
26 | 97.2 | CC(C)C[C@@H](NC(=O)c1cnc2c(=O)[nH]c(N)nc2n1)C(=O)O | 
27 | 11.7 | Nc1nc2nc(C(=O)NCCCCC(=O)O)cnc2c(=O)[nH]1 | 
